In this assay the test system is 388556-164-R-J1-PDC complex spheroid viability. Nature of the assay: Anticancer human tumor 388556-164-R-J1-PDC patient-derived colon adenocarcinoma cell line growth inhibition [RAS]. To be noted: for viability, T/C: stronger effect = lower value. An excerpt: RAS pathway inhibitors in Combinations in Complex Spheroids
A high-throughput screen of multi-cell type tumor spheroids was designed to identify active combinations of RAS pathway inhibitors and targeted small molecules. Complex spheroids include a stromal component modeled by human endothelial cells (HUVEC) and fibroblasts modeled by human mesenchymal stem cells (MSCs). The concentration ranges selected for each drug and investigational agent were based upon clinically achievable concentrations if the clinical Cmax of the agent was known.
Compounds. The drugs and investigational agents: abemaciclib (NSC768073), cobimetinib (NSC768068), divarasib (GDC6063, NSC841802), docetaxel (NSC628503), GDC-1971 (RLY-1971, NSC841576), gemcitabine (NSC613327), inavolisib (NSC800729), ipatasertib (NSC767898), KB-0742 (NSC834161), MRTX-1133 (NSC836407), osimertinib (NSC779217), RMC-4630 (NSC839698), RMC-6236 (NSC851965), RMC-6291 (NSC852671), Ro-3306 (NSC812927), sapanisertib (NSC764658), SN-38 (NSC673596), staurosporine (NSC755774), SY5609 (NSC837396), and tovorafenib (DAY101, NSC766906), were obtained from the National Cancer Institute (NCI) Developmental Therapeutics Program Chemical Repository. The FDA-approved anticancer drug set is available from the NCI Developmental Therapeutics Program. […] The stock solutions were prepared in dimethyl sulfoxide (DMSO, Sigma-Aldrich, St. Louis, MO, cat. D2650) at 800-fold the tested concentration and stored at -70 degrees C prior to their use. All drugs and investigational agents were tested over a range starting from a high concentration at or near the clinical Cmax and decreasing in half-log increments. If the clinical Cmax for an agent had not been determined, the highest concentration tested was 10 microM.
Cell Culture. All cells were maintained in an incubator at 37 degrees C and 5% CO2 with 95% humidity. The PDC lines were cultured according to standard operating procedures established by the NCI PDMR. All PDCs were thawed and cultured in Matrigel-coated flasks prepared with a working solution of 1X Ham's F-12 nutrient mix, without supplementation (Invitrogen, Waltham, MA, cat. 11765054), 100 U/mL penicillin-streptomycin (Invitrogen, cat. 15140122), and 2.5% Matrigel (Corning Inc., Corning, NY, cat. 354248) for the first three passages. The 362531-283-R-J2-PDC and 782815-120-R-J1-PDC lines were cultured in 6C/Colon 1B media, which includes advanced DMEM/F-12 (Thermo Fisher Scientific, cat. 12634028), 10 mM HEPES (Thermo Fisher Scientific, cat. 15630080), 1X GlutaMAX supplement (Thermo Fisher Scientific, cat. 35050061), 0.1 mg/mL primocin (InvivoGen, San Diego, CA, cat. ant-pm-2), 10% defined fetal bovine serum, heat inactivated (HyClone Laboratories Inc., Logan, UT, cat. SH30070.03HI), 50% L-WRN conditioned media (ATCC, cat. CRL-3276), 1.25 mM N-Acetyl-L-cysteine (Sigma-Aldrich, cat. A9165), 10 mM nicotinamide (Sigma-Aldrich, cat. N0636), 1X B-27 supplement (Thermo Fisher Scientific, cat. 17504044), 1X N-2 supplement (Thermo Fisher Scientific, cat. 17502048), 50 ng/mL human EGF (Thermo Fisher Scientific, cat. PHG0311), and 10 microM Y-27632 dihydrochloride (Tocris Bioscience, cat. 1254). The K12877-001-R-J1-PDC line was cultured in 6I media, which includes all 6C/Colon 1B media plus 10 ng/mL human FGF-10 (PeproTech, cat. 100-26), 1 ng/mL human FGF-2 (PeproTech, cat. 100-18B), 1 µM prostaglandin E2 (Tocris Bioscience, cat. 2296), […] hydrocortisone (Sigma-Aldrich, cat. H4001), and […] bovine insulin (Sigma-Aldrich, cat. I6634). The K86415-001-R-J1-PDC line was cultured in 6D media, which includes all 6C/Colon 1B media components minus the L-WRN conditioned media. The 485176-168-R4-J1-PDC was cultured in PANC media, which includes all 6C/Colon 1B media plus 100 ng/mL human FGF-10 (PeproTech, cat. 100-26), 500 nM SB-431542 (Selleckchem, cat. S1067), and 10 nM gastrin (Tocris Bioscience, cat. 3006). […]

Each structure is given as a SMILES string.
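Note: spheroids exposed to compound for 7 days before readout.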
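Throughout, for viability, T/C: 100% = DMSO vehicle control luminescence.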

In the case of `CCn1c(-c2cc(N3CCN(C)CC3)cnc2C(C)OC)c2c3cc(ccc31)-c1csc(n1)CC(NC(=O)C1CC1C)C(=O)N1CCCC(N1)C(=O)OCC(C)(C)C2` (stereo unspecified), the viability, T/C is 99% [middle of 8 runs] (compound 0.000949 µM); 92% [middle of 8 runs] (compound 0.003 µM); 78.5% [middle of 8 runs] (compound 0.00949 µM); 62.5% [middle of 8 runs] (compound 0.03 µM); 45.2% [middle of 8 runs] (compound 0.0949 µM); 34.4% [middle of 8 runs] (compound 0.3 µM). Moreover, the IC50 (compound alone, run of 08/26/2024) was 68.6 nM [middle of 8 runs].
For `CC(C)n1nc(-c2ccc3oc(N)nc3c2)c2c(N)ncnc21` + C#Cc1c(F)ccc2cc(O)cc(-c3ncc4c(N5CC6CCC(C5)N6)nc(OCC56CCCN5CC(F)C6)nc4c3F)c12, the IC50 is, setting by setting: (curve of first compound, second compound 0.0316 µM) 98.5 nM; (curve of first compound, second compound 0.1 µM) 78.5 nM; (curve of first compound, second compound 0.316 µM) 48.7 nM; (curve of first compound, second compound 1 µM) 41.6 nM; (curve of first compound, second compound 3.16 µM) 39.2 nM; (curve of first compound, second compound 10 µM) 10.6 nM. Also, the viability, T/C (second compound 0.0316 µM, first compound 0.000316 µM) is 98.6%; the viability, T/C (second compound 0.0316 µM, first compound 0.001 µM) is 97.7%; the viability, T/C (second compound 0.0316 µM, first compound 0.00316 µM) is 89.9%; the viability, T/C (second compound 0.0316 µM, first compound 0.01 µM) was 75.7%; the viability, T/C (second compound 0.0316 µM, first compound 0.0316 µM) was 64%; the viability, T/C (second compound 0.0316 µM, first compound 0.1 µM) was 49.4%. Further, the viability, T/C was 95.7% (second compound 0.1 µM, first compound 0.000316 µM); 99.7% (second compound 0.1 µM, first compound 0.001 µM); 90.6% (second compound 0.1 µM, first compound 0.00316 µM); 78.5% (second compound 0.1 µM, first compound 0.01 µM); 62.6% (second compound 0.1 µM, first compound 0.0316 µM); 46.6% (second compound 0.1 µM, first compound 0.1 µM). Also, the viability, T/C runs as follows: (second compound 0.316 µM, first compound 0.000316 µM) 91.6%; (second compound 0.316 µM, first compound 0.001 µM) 97.1%; (second compound 0.316 µM, first compound 0.00316 µM) 79.5%; (second compound 0.316 µM, first compound 0.01 µM) 79.5%; (second compound 0.316 µM, first compound 0.0316 µM) 56%; (second compound 0.316 µM, first compound 0.1 µM) 37.8%. The viability, T/C (second compound 1 µM, first compound 0.000316 µM) was 90.5%; the viability, T/C (second compound 1 µM, first compound 0.001 µM) was 88%; the viability, T/C (second compound 1 µM, first compound 0.00316 µM) is 69.9%; the viability, T/C (second compound 1 µM, first compound 0.01 µM) is 71.5%; the viability, T/C (second compound 1 µM, first compound 0.0316 µM) was 55.6%; the viability, T/C (second compound 1 µM, first compound 0.1 µM) is 35.5%. Moreover, the viability, T/C runs as follows: (second compound 3.16 µM, first compound 0.000316 µM) 82.2%; (second compound 3.16 µM, first compound 0.001 µM) 74.4%; (second compound 3.16 µM, first compound 0.00316 µM) 68.5%; (second compound 3.16 µM, first compound 0.01 µM) 73.5%; (second compound 3.16 µM, first compound 0.0316 µM) 52.3%; (second compound 3.16 µM, first compound 0.1 µM) 31.4%. The viability, T/C reads like this: (second compound 10 µM, first compound 0.000316 µM) 74.6%; (second compound 10 µM, first compound 0.001 µM) 59.9%; (second compound 10 µM, first compound 0.00316 µM) 60.1%; (second compound 10 µM, first compound 0.01 µM) 53.3%; (second compound 10 µM, first compound 0.0316 µM) 40.3%; (second compound 10 µM, first compound 0.1 µM) 29.9%.
For `CC(=O)OC12COC1CC(O)C1(C)C(=O)C(O)C3=C(C)C(OC(=O)C(O)C(NC(=O)OC(C)(C)C)c4ccccc4)CC(O)(C(OC(=O)c4ccccc4)C21)C3(C)C` (stereo unspecified), the viability, T/C is 89.3% [middle of 4 runs] (compound 0.0316 µM); 74.3% [middle of 4 runs] (compound 0.1 µM); 75% [middle of 4 runs] (compound 0.316 µM); 78.8% [middle of 4 runs] (compound 1 µM); 78.5% [middle of 4 runs] (compound 3.16 µM); 75.2% [middle of 4 runs] (compound 10 µM). Moreover, for the setting “curve of compound”, the IC50 was > 10000 nM.

One may read the viability, T/C as the ratio of treated to control. The term IC50 denotes the concentration that gives 50% inhibition.

Values taken from PubChem BioAssay AID2060907 (Molecular Pharmacology Branch, DTP, NCI, 2025).
